Data on three substances can be found in US20190091494A1, “PEPTIDES FOR HAIR GROWTH” (Clinical Stem Cells Pty Ltd, priority 2016, published 2019).

“And” between values parts separate entries of the source, which are not always exact repeats. Equal entries are not always repeated. “Also recorded” adds a separate entry of the source. Where no end group is shown, it is not given here. [ ]: non-standard residue; d: D form. pGlu = O=C1CC[C@@H](C(=O)O)N1

Data set [1] concerns adult subjects with a diagnosis of AGA. Put plainly: Further clinical trial, numbered visual analog scale (VAS) global hair assessment. The format is in vivo, human. Particulars: for VAS after treatment: scale 0-10, one value per subject 1-18, 0.0005% spray twice daily, 4-10 months. From the text: (§1) Eighteen consecutive adult subjects were recruited, 17 males and 1 female, age range 35-90 years (mean 55.4, SD 13.3) with a diagnosis of AGA, Norwood classification 2-7, and hair loss duration range of 3-40 years (mean 15.8, SD 9.6). The trial duration for each subject ranged from 4-10 months. The test compound ZT was synthesized by standard Fmoc peptide protocols and administered in water based topical spray to the scalp. Baseline and after treatment images for hair growth were graded by two blinded assessors using two validated scales: 1. numerical visual analog scale (VAS) for global assessment 2. hair growth index (HGI) of images under higher magnification for percentage changes of vellus, intermediate and terminal hair.
(§2) Male and female adult subjects with a diagnosis of AGA were invited to participate in the study. Each subject provided written informed consent except the subject who gave verbal consent as they were unable to provide written consent due to arthritis of the hand. The study was conducted in compliance with the Declaration of Helsinki, International Conference on Harmonization Good Clinical Practice guidelines. Eighteen consecutive adult subjects were recruited (17 males and 1 […]) with an age range 35-90 years (mean 55.4, SD 13.3) with a diagnosis of AGA Norwood-Hamilton classification 2-7, and with a hair loss history ranging from 3-40 years (mean 15.8, SD 9.6). Entry time points of the volunteers occurred over 6 months with the trial completed at the same endpoint resulting in duration of treatment for subjects in the trial ranging from 4-10 months.
(§3) The product given to subjects was a 100 ml spray bottle containing 0.0005% ZT as the active test agent. Subjects were instructed to spray 1-2 ml of solution, twice daily, and rub into the scalp. The spray bottle solution was to be kept away from direct sunlight and heat. Subjects were resupplied with fresh solutions every 6-8 weeks during the trial.
(§4) Images were captured on a Samsung Galaxy Note 4 phone in high resolution (16 MB image) with flash, F 2.2 and focal length 31 mm. For assessment, baseline and after treatment images were de-identified, paired and randomly allocated with respect to left/right sides. Images were presented for analysis to assessors in Powerpoint format files on a 55 inch high resolution television screen. All images and original assessor scorecards were archived in PDF format for external reviewer confirmation.
1. Numbered visual analog scale (VAS) where the assessor gives a value between 0-10 of the image (0=total absence of hair, 10=full abundant hair) (Price, 2008).
(§5) Assessment was graded by two independent assessors in a single blind manner. Assessors underwent three training sessions over two weeks prior to the final evaluation.

The test system is the same in data set [2]. Put plainly: Further clinical trial, safety: side effects and drug interaction. The note with it: listed as ZT. The format is in vivo, human.
Description: as §1, §2, §3

Data set [3] deals with scalp of subject #17. Description: Fluorescence spectroscopy procedure of the scalp. Type of data set: in vivo, human. The note with it: subject #17 (30 year hair loss); 6 pre-existing terminal hairs under visible white LED light. From the text:
To confirm this effect subject #17 (30 year hair loss) underwent a fluorescence spectroscopy procedure of the scalp. […] Supporting evidence was seen when comparing the assessor pooled responses of ‘total absent hair’ where 65% (13/20) of subjects improved.

The test system of data set [4] is hair follicles. Description: Clinical trial using topical zinc thymulin: number of active hair follicles in a set scalp area. Type of data set: in vivo, Human. The protocol:
The area near the marker affected by hair loss was photographed using a Samsung Galaxy Note 4 camera with settings F2.2, focal length 31 mm, LED flash and the number of active hair follicles in a set area were quantified.
The aqueous spray formulation prepared in Example 2 was administered topically to the scalp of the trial subjects twice daily to the hair loss region(s) of the scalp. The formulation used for subjects 1, 2 and 3 contained 0.00005% LKKTETQ peptide (molecular weight 846.48).
At 16 weeks for subject 1 and 12 weeks for subjects 2, 3 and 4, the number of active hair follicles in the set area was quantified again. Multiple set areas of hair loss were evaluated for trial subjects 1, 2 and 3. These areas are designated “a” and “b” in Table 2 and Table 3.

In data set [5] the test system is adult subjects with a diagnosis of AGA. Put plainly: Further clinical trial, Hair Growth Index (HGI) of magnified images. The note with it: for HGI adjusted score A (absent) after: raw % multiplied by 0; for HGI raw score % A (absent) after / HGI raw score % I (intermediate) after / HGI raw score % T (terminal) after / HGI raw score % V (vellus) after: per subject, after trial completion. Type of data set: in vivo, human.
Description: as §1, §2, §3, §4
2. Hair Growth Index (HGI) that is a more in-depth scale of analysis where higher magnification of images can identify the four types of hair regrowth that are designated as absent, vellus, intermediate or terminal (Bernado, 2003). For each image these four growth stages are given percentage values that added together give a raw score total of 100%. Each percentage value for absent, vellus, intermediate, and terminal are multiplied by 0,1,2,3 respectively to yield a final adjusted score ranging from a possible minimum score of 0 (total absence of hair) to a maximum score of 300 (full terminal hair). Scores were pooled for paired t-test, and P<0.05 was established for significance.
as §5

The subject of data set [6] is inactive hair follicles. Description: Inventor's observation: activation of inactive hair follicles. The note with it: in vivo.
The test system of data set [7] is active hair follicles. Particulars: topically applied to rodent skin; cited from earlier work.
Data set [8] concerns hair follicles. Particulars: active hair follicles that entered catagen; US 2011/0281802; cited from earlier work.
[9] abbreviates: all 7 subject areas, 12-16 weeks.
The mark [10] stands for this setting: subject 4, 12 weeks, spray without LKKTETQ peptide.

Consider “zinc thymulin: zinc complex of amidated and acetylated thymulin H3CC(O)-Pyr-Glu-Ala-Lys-Ser-Gln-Gly-Gly-Ser-Asn-NH2; tested as 0.0005% water based topical spray (Ac-[pGlu]AKSQGGSN-NH2; also: zinc complex)”, for which the “VAS hair assessment improvement” value in data set [1] (11 subjects who completed at least 6 months of treatment, listed as ZT) was “significant growth”. In data set [1] (Assessor #1), the VAS after treatment was 6 (3×) and 8 (10×) and 9 (3×) and 7 (2×). Besides, the VAS after treatment in data set [1] (Assessor #2) is 6 (5×) and 8 (5×) and 7 (3×) and 4 and 9 (2×) and 5 (2×). The VAS hair growth result in data set [1] (total group (18 subjects) at the end of the trial) is given as “no significant growth”. In addition, in data set [2] (18 subjects, topical 0.0005% spray, total of 3,300 treatment days), the “adverse systemic effects or local side effects (redness, scalp irritation)” value is “no adverse systemic effects or local side effects of redness or scalp irritation; also recorded: no redness, scalp irritation or deterioration of hair color, quality or quantity”. Also, the “side effects reported in the entire study” value in data set [2] (18 test subjects, total of 111 months (~3,300 days), attributed to a non-active constituent (citric acid buffer)) is “Only one side effect; also recorded: only one side effect from a non-active constituent”. Further, the “drug interaction with ZT” value in data set [2] (three subjects concurrently using minoxidil (N=2) and minoxidil/finasteride (N=1)) is reported as “did not report any drug interaction; also recorded: no observable drug interaction”. Also, the “additional developing vellus hairs revealed by spectroscopy” value in data set [3] came to 59. In data set [4] (setting [9]), the “Percentage increase in active hair follicles, Average increase” value is reported as 80% and the “Percentage increase in active hair follicles, Range” value is 6-200%. In addition, the “Number of active hair follicles after treatment per cm^2” value in data set [4] (subject 1 (areas a, b), 16 weeks, spray with LKKTETQ peptide) is 21 per cm^2 and 24 per cm^2. The “Number of active hair follicles after treatment” value in data set [4] (subject 1 (areas a, b), 16 weeks, twice daily topical 0.0005% spray also containing 0.00005% LKKTETQ peptide) was 36 and 48. Also, in data set [4] (setting [10]), the “Number of active hair follicles after treatment per cm^2” value was determined as 38 per cm^2 and the “Percentage increase in active hair follicles” value is recorded as 135%. Also, the “Number of active hair follicles after treatment” value in data set [4] (subject 4, 12 weeks, twice daily topical 0.0005% spray without LKKTETQ peptide) was found to be 40. Besides, the “assessor pooled responses of 'total absent hair' improved” value in data set [5] (13/20 pooled responses) came to 65%. The “HGI adjusted score A (absent) after” value in data set [5] (Assessor #1) is 0. For the same substance, the “HGI adjusted score A (absent) after” value in data set [5] (Assessor #2) turned out to be 0. Also, the “HGI adjusted score I (intermediate) after” value in data set [5] (Assessor #2, raw % multiplied by 2, listed as ZT) is 60 and 40. Also, in data set [5] (HGI assessment, at 6 months), the “average increase of intermediate type hairs” value is 23% and the “average increase of vellus type hairs” value came out at 32%. Besides, in data set [5] (HGI assessment, listed as ZT), the “number of newly observed intermediate hairs in previous absent hair regions” value was “significant increase; also recorded: highly significant increased number”. In data set [5] (assessor A#1, listed as ZT), the “HGI raw score % A (absent) after” value was 50% (3×) and 40% (4×) and 15% and 20% (2×); the “HGI raw score % I (intermediate) after” value is 20% (2×) and 15% and 10% (2×) and 25% (5×); the “HGI raw score % T (terminal) after” value was 20% (2×) and 30% (3×) and 15% and 10% (2×) and 55% and 60%; the “HGI raw score % V (vellus) after” value was 10% (3×) and 20% (2×) and 25% (3×) and 15% and 5%. In addition, in data set [5] (assessor A#2, listed as ZT), the “HGI raw score % A (absent) after” value was 20% and 30% (3×) and 10% (3×) and 40% (2×) and 50%; the “HGI raw score % I (intermediate) after” value was 30% (6×) and 20% (4×); the “HGI raw score % T (terminal) after” value is 20% (4×) and 30% (2×) and 40% and 10% (2×) and 60%; the “HGI raw score % V (vellus) after” value was 30% (3×) and 20% (3×) and 0% and 40% and 10% (2×). In addition, the Melanogenesis entry in data set [5] (higher magnification images, several (older) subjects, listed as ZT) is recorded as “Melanogenesis was observed in several subjects; also recorded: clearly observed”. Further, the “activation of inactive hair follicles” value in data set [6] was “effective”.
On to “LKKTETQ [leucine-leucine-lysine-threonine-glutamic acid-threonine-glutamine, added at 0.00005% (amidated & acetylated) to the spray of subjects 1-3]”, for which, in data set [7], the hair growth result was “promotes hair growth from existing active hair follicles”.
For “pyrGlu-Ala-Lys-Ser-Gln-Gly-Gly-Ser-Asn ([pGlu]AKSQGGSN) [thymulin, nonapeptide produced by the thymus gland, CAS 63958-90-7, reference compound]”, the hair shaft formation result in data set [8] is reported as “inhibit hair shaft formation”. In addition, the “activation of inactive hair follicles” value in data set [6] is “does not significantly activate inactive hair follicles”.
